Tests used:
[1] = Tmax in BALB/c mouse at 12.5 mg/kg, ip administered as liposome encapsulated form measured upto 24 hrs by LC-MS/MS analysis; type: ADME, organism-based; details: in vivo
[2] = molecular target: T1, Short transient receptor potential channel 5 (Homo sapiens, UniProt Q9UL62); test: Antagonist activity at human TRPC5 stably expressed in HEK293 cells inhibition of calcium influx by calcium fluorescence assay; type: cell-based
T1 sequence (Q9UL62 whole entry): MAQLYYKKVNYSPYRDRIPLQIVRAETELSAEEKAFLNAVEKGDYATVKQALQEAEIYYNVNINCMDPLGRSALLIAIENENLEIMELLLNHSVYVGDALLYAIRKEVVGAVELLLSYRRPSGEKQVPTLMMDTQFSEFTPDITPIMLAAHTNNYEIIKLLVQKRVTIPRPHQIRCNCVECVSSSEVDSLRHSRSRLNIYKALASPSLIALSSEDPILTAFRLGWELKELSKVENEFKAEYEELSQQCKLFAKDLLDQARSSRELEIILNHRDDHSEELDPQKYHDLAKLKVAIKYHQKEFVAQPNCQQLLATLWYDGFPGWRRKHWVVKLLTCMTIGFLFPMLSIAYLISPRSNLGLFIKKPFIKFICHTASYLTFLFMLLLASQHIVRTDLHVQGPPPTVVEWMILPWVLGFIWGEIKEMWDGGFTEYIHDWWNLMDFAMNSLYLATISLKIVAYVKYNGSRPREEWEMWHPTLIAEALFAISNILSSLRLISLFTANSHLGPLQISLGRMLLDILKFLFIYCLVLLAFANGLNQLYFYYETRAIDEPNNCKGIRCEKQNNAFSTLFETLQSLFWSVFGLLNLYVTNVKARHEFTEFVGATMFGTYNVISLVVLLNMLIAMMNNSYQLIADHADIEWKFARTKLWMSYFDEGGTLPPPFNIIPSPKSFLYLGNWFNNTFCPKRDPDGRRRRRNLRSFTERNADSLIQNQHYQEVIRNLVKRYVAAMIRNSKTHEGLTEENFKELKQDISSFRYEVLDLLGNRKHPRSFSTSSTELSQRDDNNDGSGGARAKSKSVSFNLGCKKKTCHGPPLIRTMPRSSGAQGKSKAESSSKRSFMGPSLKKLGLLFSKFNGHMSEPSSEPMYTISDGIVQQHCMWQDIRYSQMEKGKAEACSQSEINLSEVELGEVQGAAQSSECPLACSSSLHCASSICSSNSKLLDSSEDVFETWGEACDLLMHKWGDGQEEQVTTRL

MKN-45 = test: Antiproliferative activity against human MKN-45 cells assessed as reduction in cell viability incubated for 72 hrs by MTT assay; type: functional, cell-based; details: MKN-45, 72 h
U-87 MG = test: Antitumor activity against human U87 cells xenografted in BALB/c nude mouse assessed as tumor growth inhibition at 12.5 mg/kg/day administered as liposome encapsulated form for 15 days and measured every 3 days by vernier caliper; type: functional, U-87MG ATCC; details: 360 h, time 15 day, read-out: TGI
[3] = AUC (0 to t) in BALB/c mouse at 12.5 mg/kg, ip administered as liposome encapsulated form and measured upto 24 hrs by LC-MS/MS analysis; type: ADME, organism-based; details: in vivo
[4] = Toxicity against BALB/c nude mouse xenografted with human U87 cells assessed as mortality at 12.5 to 50 mg/kg/day administered as liposome encapsulated form for 15 days; type: organism-based, U-87MG ATCC; details: in vivo, 360 h, dose 12.5-50 mg/kg/day, time 15 day
[5] = AUC (0 to infinity) in BALB/c mouse at 50 mg/kg, ip administered as liposome encapsulated form and measured upto 24 hrs by LC-MS/MS analysis; type: ADME, organism-based; details: in vivo
HCT-116 = test: Antiproliferative activity against human HCT-116 cells assessed as reduction in cell viability incubated for 72 hrs by MTT assay; type: functional, cell-based; details: HCT-116, 72 h
[6] = AUC (0 to t) in BALB/c mouse at 50 mg/kg, ip administered as liposome encapsulated form and measured upto 24 hrs by LC-MS/MS analysis; type: ADME, organism-based; details: in vivo
[7] = molecular target: T2, Short transient receptor potential channel 6 (Mus musculus, UniProt Q61143); test: Antagonist activity at mouse TRPC6 stably expressed in HEK293 cells inhibition of calcium influx by calcium fluorescence assay; type: cell-based
T2 sequence (Q61143 whole entry): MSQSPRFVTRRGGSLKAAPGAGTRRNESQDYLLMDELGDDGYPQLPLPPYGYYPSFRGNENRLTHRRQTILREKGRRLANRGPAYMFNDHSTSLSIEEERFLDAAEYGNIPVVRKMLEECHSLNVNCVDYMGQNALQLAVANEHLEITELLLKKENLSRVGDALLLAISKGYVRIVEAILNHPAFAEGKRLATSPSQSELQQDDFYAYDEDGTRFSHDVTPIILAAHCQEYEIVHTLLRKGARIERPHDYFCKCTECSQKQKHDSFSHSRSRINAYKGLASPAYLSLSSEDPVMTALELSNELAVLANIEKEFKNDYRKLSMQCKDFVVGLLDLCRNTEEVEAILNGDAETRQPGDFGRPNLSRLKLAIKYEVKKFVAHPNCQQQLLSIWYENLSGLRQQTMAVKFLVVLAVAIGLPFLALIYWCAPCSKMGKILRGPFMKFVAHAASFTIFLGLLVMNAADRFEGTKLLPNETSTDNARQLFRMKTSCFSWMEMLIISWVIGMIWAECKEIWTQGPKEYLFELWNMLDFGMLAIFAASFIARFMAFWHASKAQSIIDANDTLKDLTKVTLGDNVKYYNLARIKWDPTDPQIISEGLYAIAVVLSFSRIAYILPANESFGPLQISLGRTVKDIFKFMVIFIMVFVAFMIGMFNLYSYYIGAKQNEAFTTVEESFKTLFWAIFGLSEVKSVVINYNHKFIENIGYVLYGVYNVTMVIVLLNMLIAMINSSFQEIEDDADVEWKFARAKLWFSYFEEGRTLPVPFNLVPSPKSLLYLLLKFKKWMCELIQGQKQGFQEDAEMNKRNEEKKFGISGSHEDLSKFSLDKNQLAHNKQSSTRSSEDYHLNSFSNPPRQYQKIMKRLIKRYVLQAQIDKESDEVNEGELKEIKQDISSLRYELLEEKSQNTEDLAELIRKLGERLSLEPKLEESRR

[8] = Cmax in BALB/c mouse at 25 mg/kg, ip administered as liposome encapsulated form and measured upto 24 hrs by LC-MS/MS analysis; type: ADME, organism-based; details: in vivo
[9] = Cmax in BALB/c mouse at 12.5 mg/kg, ip administered as liposome encapsulated form and measured upto 24 hrs by LC-MS/MS analysis; type: ADME, organism-based; details: in vivo
[10] = Terminal half life in BALB/c mouse at 25 mg/kg, ip administered as liposome encapsulated form and measured upto 24 hrs by LC-MS/MS analysis; type: ADME, organism-based; details: in vivo, read-out: beta t1/2 (converted)
[11] = Terminal half life in BALB/c mouse at 50 mg/kg, ip administered as liposome encapsulated form and measured upto 24 hrs by LC-MS/MS analysis; type: ADME, organism-based; details: in vivo, read-out: beta t1/2 (converted)
[12] = Toxicity against BALB/c nude mouse xenografted with human U87 cells assessed as change in body weight at 12.5 to 50 mg/kg/day administered as liposome encapsulated form for 15 days; type: organism-based, U-87MG ATCC; details: in vivo, 360 h, dose 12.5-50 mg/kg/day, time 15 day

NCCN(Cc1ccc2ccccc2c1)c1nc(C(=O)Nc2ccc(O)cc2)cs1
Tmax [1]: 4 h
IC50 [2]: 7.6 µM
IC50 (MKN-45): 11 µM
inhibition in vivo at 12.5 mg/kg/day (U-87 MG): 36.3%
AUC(0-t) at 24 h [3]: 2550 ng·h/mL
Activity [4]: Non-Toxic
AUC(0-inf) [5]: 16800 ng·h/mL
IC50 (HCT-116): 9.8 µM
AUC(0-t) at 24 h [6]: 16600 ng·h/mL
IC50 [7]: 2.9 µM
Cmax [8]: 1220 ng/mL
Cmax [9]: 288 ng/mL
half-life [10]: 3.4 h
half-life [11]: 3.8 h
Activity [12]: Non-Toxic

Source: ChEMBL document CHEMBL5518193, “Discovery of N-alkyl-N-benzyl thiazoles as novel TRPC antagonists for the treatment of glioblastoma multiforme” (Eur J Med Chem, 2024)
